Reference: patent US8710043B2, “TRPM8 antagonists and their use in treatments” (Amgen Inc., priority 2011, dated 2014)

What follows are molecules tested against T1, human TRPM8 (Homo sapiens, UniProt Q7Z2W7) (assay: Luminescence readout assay for measuring intracellular calcium, icilin activation). Details: CHO cells expressing human TRPM8, aequorin luminescence, 1 μM icilin activation; read-out: hTRPM8 IC50.
T1 construct: expressed in transfected cells; host or cells: Chinese hamster ovary (CHO) cells, T-REx tetracycline-inducible system, co-transfected with aequorin
T1 sequence (Q7Z2W7 whole entry): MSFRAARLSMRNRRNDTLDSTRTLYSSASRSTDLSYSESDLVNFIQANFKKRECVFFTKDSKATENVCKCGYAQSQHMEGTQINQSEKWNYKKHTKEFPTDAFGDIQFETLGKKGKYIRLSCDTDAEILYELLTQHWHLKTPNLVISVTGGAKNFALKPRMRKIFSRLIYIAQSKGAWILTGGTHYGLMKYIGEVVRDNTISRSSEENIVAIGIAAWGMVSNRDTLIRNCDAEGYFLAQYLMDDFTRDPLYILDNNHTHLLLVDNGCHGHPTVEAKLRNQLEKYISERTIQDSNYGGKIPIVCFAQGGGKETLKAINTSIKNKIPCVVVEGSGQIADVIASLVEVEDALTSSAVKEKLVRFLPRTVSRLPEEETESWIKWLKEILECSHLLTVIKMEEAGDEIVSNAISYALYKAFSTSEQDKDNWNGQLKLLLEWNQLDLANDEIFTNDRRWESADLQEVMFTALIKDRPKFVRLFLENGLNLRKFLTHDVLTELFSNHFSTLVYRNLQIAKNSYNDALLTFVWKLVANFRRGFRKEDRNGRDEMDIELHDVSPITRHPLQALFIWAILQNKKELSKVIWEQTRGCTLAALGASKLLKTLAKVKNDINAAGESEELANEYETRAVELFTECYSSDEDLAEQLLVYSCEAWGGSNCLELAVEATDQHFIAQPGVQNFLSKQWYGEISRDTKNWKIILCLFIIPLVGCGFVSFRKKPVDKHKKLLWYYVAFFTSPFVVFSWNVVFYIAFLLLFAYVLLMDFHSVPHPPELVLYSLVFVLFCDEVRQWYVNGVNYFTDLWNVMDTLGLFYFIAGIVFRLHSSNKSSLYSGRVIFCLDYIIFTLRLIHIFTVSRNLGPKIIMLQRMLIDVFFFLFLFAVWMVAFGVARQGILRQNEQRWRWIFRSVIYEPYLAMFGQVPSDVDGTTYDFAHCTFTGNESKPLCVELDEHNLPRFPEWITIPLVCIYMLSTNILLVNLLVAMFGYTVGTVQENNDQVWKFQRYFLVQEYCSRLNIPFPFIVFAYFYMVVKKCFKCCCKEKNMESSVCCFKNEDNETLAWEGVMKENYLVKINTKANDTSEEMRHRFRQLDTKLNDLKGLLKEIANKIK
Type: cell-based
Method in brief: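 The read-out was luminescence reporting intracellular calcium, recorded by a CCD-based luminometer. Compounds were preincubated for 2.5 min before agonist challenge with 1 μM icilin. Human TRPM8 was expressed in a stable T-REx CHO line, induced with 0.5 μg/mL tetracycline the day before.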

Row | SMILES | IC50 [nM]
1 | O=C(N[C@@H](c1ccc(C(F)(F)F)cc1)c1ccccn1)c1ccc2c(c1)NCCC2 [Example 276, (S)—N-(Pyridin-2-yl(4-(trifluoromethyl)phenyl)methyl)-1,2,3,4-tetrahydroquinoline-7-carboxamide] | 177
2 | COc1ncccc1C(=O)NC(c1ccc(C(F)(F)F)cc1)c1ncccc1F (stereo not drawn) [Example 36, N-((3-fluoropyridin-2-yl)(4-(trifluoromethyl)phenyl)methyl)-2-methoxynicotinamide] | 73
3 | COc1ccc(C(=O)N[C@@H](c2ccc(C(F)(F)F)cc2)c2ncccc2C(F)(F)F)nn1 [Example 37, (S)-6-methoxy-N-((4-(trifluoromethyl)phenyl)(3-(trifluoromethyl)pyridin-2-yl)methyl)pyridazine-3-carboxamide] | 146
4 | COc1cccc([C@H](NC(=O)c2ccc3cccnc3c2)c2ncccc2C(F)(F)F)c1 [Example 24, (S)-N-((3-methoxyphenyl)(3-(trifluoromethyl)pyridin-2-yl)methyl)quinoline-7-carboxamide] | 318
5 | O=C(N[C@@H](c1cc(F)cc(C(F)(F)F)c1)c1ncccc1F)c1ccc(=O)[nH]c1 [Example 327, (S)-N-((3-fluoro-5-(trifluoromethyl)phenyl)(3-fluoropyridin-2-yl)methyl)-6-oxo-1,6-dihydropyridine-3-carboxamide] | 302
6 | COc1ccc(C(NC(=O)c2ccc(=O)[nH]c2)c2ccc(OC(F)(F)F)c(F)c2)nc1 (stereo not drawn) [Example 421] | 611
7 | O=C(N[C@@H](c1ccc(OC(F)(F)F)c(F)c1)c1ncccc1F)c1ccc(=O)[nH]n1 [Example 349, (S)-N-((3-fluoro-4-(trifluoromethoxy)phenyl)(3-fluoropyridin-2-yl)methyl)-6-oxo-1,6-dihydropyridazine-3-carboxamide] | 15.6
8 | Cc1cc(F)cc([C@H](NC(=O)c2ccc(=O)n(C)c2)c2ncccc2F)c1 [Example 326, (S)-N-((3-fluoro-5-methylphenyl)(3-fluoropyridin-2-yl)methyl)-1-methyl-6-oxo-1,6-dihydropyridine-3-carboxamide] | 3210
9 | Nc1ccc(C(=O)N[C@@H](c2ccc(C(F)(F)F)cc2)c2ncccc2C(F)(F)F)cn1 [Example 134, (S)-6-amino-N-((4-(trifluoromethyl)phenyl)(3-(trifluoromethyl)pyridin-2-yl)methyl)nicotinamide] | 31
10 | O=C(N[C@@H](c1ccc(C(F)(F)F)cc1)c1ncccc1F)c1ccc2nccc(O)c2c1 [Example 114, (S)-N-((3-fluoropyridin-2-yl)(4-(trifluoromethyl)phenyl)methyl)-4-hydroxyquinoline-6-carboxamide 2,2,2-trifluoroacetate] | 50.6
11 | CC(C)(C)OC(=O)N1CC(CC(=O)N[C@@H](c2ccc(C(F)(F)F)cc2)c2ncccc2C(F)(F)F)C1 [Example 229, (S)-tert-butyl 3-(2-oxo-2-(((4-(trifluoromethyl)phenyl)(3-(trifluoromethyl)pyridin-2-yl)methyl)amino)ethyl)azetidine-1-carboxylate] | 354
12 | O=C(N[C@@H](c1ccc(C(F)(F)F)c(F)c1)c1ncccc1C(F)(F)F)[C@H]1CCCO1 [Example 123, (R)-N-((S)-(3-fluoro-4-(trifluoromethyl)phenyl)(3-(trifluoromethyl)pyridin-2-yl)methyl)THF-2-carboxamide] | 149
13 | Cc1ccc(C(NC(=O)c2ccc(=O)[nH]c2)c2ccc(OC(F)(F)F)c(F)c2)nc1 (stereo not drawn) [Example 424, N-((3-fluoro-4-(trifluoromethoxy)phenyl)(5-methylpyridin-2-yl)methyl)-6-oxo-1,6-dihydropyridine-3-carboxamide] | 92
14 | Cc1ncsc1CCC(=O)N[C@@H](c1ccc(C(F)(F)F)cc1)c1ncccc1C(F)(F)F [Example 145, (S)-3-(4-methylthiazol-5-yl)-N-((4-(trifluoromethyl)phenyl)(3-(trifluoromethyl)pyridin-2-yl)methyl)propanamide] | 85.2
15 | C[C@@H](O)Cn1cc(C(=O)N[C@@H](c2ccc(C(F)(F)F)cc2)c2ncccc2F)ccc1=O [Example 301, N-((S)-(3-fluoropyridin-2-yl)(4-(trifluoromethyl)phenyl)methyl)-1-((R)-2-hydroxypropyl)-6-oxo-1,6-dihydropyridine-3-carboxamide] | 41.7
16 | Cc1ccc([C@H](NC(=O)c2ccc(=O)[nH]c2)c2ncccc2F)cc1 [Example 379, (S)-N-((3-fluoropyridin-2-yl)(p-tolyl)methyl)-6-oxo-1,6-dihydropyridine-3-carboxamide] | 270
17 | COc1ccc(C(=O)N[C@@H](c2ccc(F)cc2)c2ncccc2C(F)(F)F)cn1 [Example 124, (S)-N-((4-fluorophenyl)(3-(trifluoromethyl)pyridin-2-yl)methyl)-6-methoxynicotinamide] | 190

Row | SMILES | IC50 [nM]
18 | O=C(N[C@@H](c1ccc(C(F)(F)F)c(F)c1)c1ncccc1C(F)(F)F)c1ccc2ncccc2c1 [Example 130, (S)-N-((3-fluoro-4-(trifluoromethyl)phenyl)(3-(trifluoromethyl)pyridin-2-yl)methyl)quinoline-6-carboxamide bis (2,2,2-trifluoroacetate)] | 24.7
19 | C[C@H](O)Cn1cc(C(=O)N[C@@H](c2ccc(OC(F)(F)F)c(F)c2)c2ncccc2F)ccc1=O [Example 298, N-((S)-(3-fluoro-4-(trifluoromethoxy)phenyl)(3-fluoropyridin-2-yl)methyl)-1-((S)-2-hydroxypropyl)-6-oxo-1,6-dihydropyridine-3-carboxamide] | 36.1
20 | Cc1cc(C)n2nc(C(=O)N[C@@H](c3ccc(C(F)(F)F)cc3)c3ncccc3C(F)(F)F)nc2n1 [Example 151, (S)-5,7-dimethyl-N-((4-(trifluoromethyl)phenyl)(3-(trifluoromethyl)pyridin-2-yl)methyl)-[1,2,4]triazolo[1,5-a]pyrimidine-2-carboxamide 2,2,2-trifluoroacetate] | 395
21 | O=C(N[C@@H](c1ccc(OC(F)(F)F)cc1)c1ncccc1F)c1ccn2ccnc2c1 [Example 88, (S)-N-((3-fluoropyridin-2-yl)(4-(trifluoromethoxy)phenyl)methyl)imidazo[1,2-a]pyridine-7-carboxamide] | 12.1
22 | COc1ccncc1C(=O)N[C@@H](c1ccc(C(F)(F)F)cc1)c1ncccc1C(F)(F)F [Example 55, (S)-4-methoxy-N-((4-(trifluoromethyl)phenyl)(3-(trifluoromethyl)pyridin-2-yl)methyl)nicotinamide] | 30.4
23 | O=C(N[C@@H](c1ccc(C(F)(F)F)cc1)c1ncccc1F)c1n[nH]c2c1CCC2 [Example 321, (S)-N-((3-fluoropyridin-2-yl)(4-(trifluoromethyl)phenyl)methyl)-1,4,5,6-tetrahydrocyclopenta[c]pyrazole-3-carboxamide] | 164
24 | O=C(N[C@@H](c1cnc2ccc(Cl)cc2c1)c1ncccc1C(F)(F)F)c1ccc2cccnc2c1 [Example 4, (S)-N-((6-chloroquinolin-3-yl)(3-(trifluoromethyl)pyridin-2-yl)methyl)quinoline-7-carboxamide] | 44
25 | Nc1cnccc1C(=O)N[C@@H](c1ccc(C(F)(F)F)cc1)c1ncccc1C(F)(F)F [Example 139, (S)-3-amino-N-((4-(trifluoromethyl)phenyl)(3-(trifluoromethyl)pyridin-2-yl)methyl)isonicotinamide] | 65.9
26 | O=C(N[C@@H](c1ccc(C(F)(F)F)cc1)c1ncccc1C(F)(F)F)c1cc(O)ccn1 [Example 62, (S)-4-hydroxy-N-((4-(trifluoromethyl)phenyl)(3-(trifluoromethyl)pyridin-2-yl)methyl)picolinamide] | 172
27 | O=C(N[C@@H](c1ccc(OC(F)(F)F)c(F)c1)c1ncccc1F)c1cc2oc(=O)[nH]c2cn1 [Example 438, (S)—N-((3-Fluoro-4-(trifluoromethoxy)phenyl)(3-fluoropyridin-2-yl)methyl)-2-oxo-2,3-dihydrooxazolo[4,5-c]pyridine-6-carboxamide] | 11.4
28 | O=C(N[C@@H](c1ccc(C(F)(F)F)c(F)c1)c1ncccc1C(F)(F)F)c1ccccn1 [Example 112, (S)-N-((3-fluoro-4-(trifluoromethyl)phenyl)(3-(trifluoromethyl)pyridin-2-yl)methyl)picolinamide] | 84.4
29 | CCn1cc(C(=O)N[C@@H](c2ccc(Cl)c(Cl)c2)c2ncccc2F)ccc1=O [Example 365, (S)-N-((3,4-dichlorophenyl)(3-fluoropyridin-2-yl)methyl)-1-ethyl-6-oxo-1,6-dihydropyridine-3-carboxamide] | 40.1
30 | O=C(N[C@@H](c1ccc(OC(F)(F)F)c(F)c1)c1ncccc1F)c1ccc(=O)n(C(F)F)c1 [Example 399, (S)-1-(difluoromethyl)-N-((3-fluoro-4-(trifluoromethoxy)phenyl)(3-fluoropyridin-2-yl)methyl)-6-oxo-1,6-dihydropyridine-3-carboxamide] | 16.5
31 | C[C@H](O)Cn1cc(C(=O)N[C@@H](c2ccc(C(F)(F)F)cc2)c2ncccc2F)ccc1=O [Example 300, N-((S)-(3-fluoropyridin-2-yl)(4-(trifluoromethyl)phenyl)methyl)-1-((S)-2-hydroxypropyl)-6-oxo-1,6-dihydropyridine-3-carboxamide] | 69.7
32 | Cc1cncc(C(=O)N[C@@H](c2ccc(C(F)(F)F)cc2)c2ncccc2C(F)(F)F)c1 [Example 182, (S)-5-methyl-N-((4-(trifluoromethyl)phenyl)(3-(trifluoromethyl)pyridin-2-yl)methyl)nicotinamide 2,2,2-trifluoroacetate] | 41.8
33 | O=C(N[C@@H](c1ccc(OC(F)(F)F)cc1)c1ncccc1F)c1c[nH]c(=O)cn1 [Example 354, (S)-N-((3-fluoropyridin-2-yl)(4-(trifluoromethoxy)phenyl)methyl)-5-oxo-4,5-dihydropyrazine-2-carboxamide] | 68.1
